What was measured:
STAT6 [1] = target: T1, STAT6 (Homo sapiens, UniProt P42226); experiment: Dephosphorylation of STAT6 (Western blot, anti-phosphorylated STAT6) in IL-4 stimulated cells; type: cell-based; conditions: U937, Jurkat and A549 cells; PLAG 0.01 to 10 μg/ml; 10 ng/ml IL-4; 15 min after stimulation
T1 construct: endogenous in cells; host or cells: U937, A549, Jurkat
T1 sequence (P42226 1-847): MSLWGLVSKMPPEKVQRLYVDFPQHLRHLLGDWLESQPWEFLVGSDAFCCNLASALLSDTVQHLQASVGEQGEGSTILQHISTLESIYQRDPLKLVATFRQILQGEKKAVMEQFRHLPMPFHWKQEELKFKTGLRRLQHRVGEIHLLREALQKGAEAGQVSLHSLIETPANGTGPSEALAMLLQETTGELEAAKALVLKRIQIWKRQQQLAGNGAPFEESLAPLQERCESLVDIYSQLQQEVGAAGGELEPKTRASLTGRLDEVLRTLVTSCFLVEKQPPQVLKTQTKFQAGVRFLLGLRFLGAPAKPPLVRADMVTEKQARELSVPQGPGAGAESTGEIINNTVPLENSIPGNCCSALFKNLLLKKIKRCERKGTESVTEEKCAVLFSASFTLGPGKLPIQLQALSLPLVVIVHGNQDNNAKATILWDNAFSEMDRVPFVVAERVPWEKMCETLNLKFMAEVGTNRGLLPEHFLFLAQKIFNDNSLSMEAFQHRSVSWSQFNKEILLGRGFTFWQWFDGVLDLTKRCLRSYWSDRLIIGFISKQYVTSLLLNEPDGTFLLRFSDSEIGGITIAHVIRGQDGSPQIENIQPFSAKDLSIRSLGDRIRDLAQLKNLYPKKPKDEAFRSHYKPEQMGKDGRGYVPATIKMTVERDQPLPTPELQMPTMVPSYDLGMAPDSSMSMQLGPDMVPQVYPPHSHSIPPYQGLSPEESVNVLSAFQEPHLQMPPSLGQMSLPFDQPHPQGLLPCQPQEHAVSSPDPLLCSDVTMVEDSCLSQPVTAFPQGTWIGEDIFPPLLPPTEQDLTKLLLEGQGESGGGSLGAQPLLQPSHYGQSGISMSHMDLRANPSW
Description: Dephosphorylation of STAT6 is examined using anti-phosphorylated STAT6 in U937, A549, and Jurkat cell lysates treated with PLAG at a concentration of from 0.01 to 10 μg/ml. Phosphorylation of STAT6 is induced by treatment with 10 ng/ml of IL-4. Dephosphorylation of STAT1 is examined in the U937 cell lysate treated with PLAG (0.01 to 10 μg/ml). Phosphorylation of STAT1 is induced by 10 ng of IFN-γ treatment. Dephosphorylation of STAT1 and STAT6 is examined at 15 min after stimulation with IFN-γ and IL-4 respectively, in the PLAG pretreated cells. […] The transcriptional activity of STAT6 is decreased by the dephosphorylation of STAT6. […] No effect of PLAG on STAT1 phosphorylation is observed.

STAT6 [2] = experiment: STAT6 transcriptional activity (luciferase) in gene transfected HepG2 cells; type: cell-based, human; conditions: 10 ng IL-4, PLAG 0.01-10 μg/ml, 12 hour incubation
Description: (§1) By using STAT6 inhibitor (S6I), it is confirmed that the reduction of complement 3 in HepG2 cells (human hepatocyte cell line) is regulated by STAT6. […] It is also confirmed that PLAG has selective efficacy on STAT6 over STAT1. FIG. 1 presents graphs showing STAT1 and STAT6 transcriptional activity in the PLAG treated HepG2 cells. NC refers to the unstimulated control cell. For the STAT1 assay, gene transfected HepG2 (human hepatocyte cell line) is treated with 10 ng of IFN-γ and serially diluted PLAG is added (0.01 μg/ml, 0.1 μg/ml, 1 μg/ml, and 10 μg/ml as shown) to see its effect on gene expression in the stimulated cell. For the STAT6 assay, gene transfected HepG2 cells are treated with 10 ng of IL-4 and again serially diluted PLAG is added (0.01 μg/ml, 0.1 μg/ml, 1 μg/ml, and 10 μg/ml as shown) to see its effect on gene expression in the stimulated cell. The assay is carried out following a 12 hour incubation of treated cells.

STAT1 = STAT1 transcriptional activity (luciferase) in gene transfected HepG2 cells; type: cell-based, human; conditions: 10 ng IFN-γ, PLAG 0.01-10 μg/ml, 12 hour incubation
Description: as §1

C3 [3] = experiment: C3 expression in HMC-1 cells induced with IL-4 and TNF-α (RT-PCR / blots); type: cell-based, human
Description: A blood cell line, HMC-1 (human mast cell, American Type Culture Collection, ATCC, Rockville, Md.) is incubated and maintained at 37° C. under 5% CO2 humid conditions. The medium is IMDM (Life Technologies, Karlsruhe, Germany) containing 10% Fetal Calf Serum (FCS, HyClone, Logan, Utah), 2 mM […], 100 μg/ml penicillin, 100 μg/ml streptomycin (Life Technologies). The cultured HMC-1 cells (1×10^6 cells/ml) are pre-treated with 0.1 and 1 μg/mL concentrations of PLAG, followed by treatment with IL-4 (5 ng) and/or TNF-α (10 ng) to induce cellular activities.
The expressed C3 and its mRNA level change are observed by using RT-PCR (Reverse Transcriptase Polymerase Chain Reaction). The RT-PCR is carried out as follows: the total RNA is separated by the standard protocol and cDNA is synthesized using AccuScript High Fidelity 1st Strand cDNA Synthesis Kit (Stratagene). Two-step RT-PCR reaction is conducted using Oligo-dT primer and reverse transcriptase, a pair of primers and Taq polymerase (Takara, Shiga, Japan). […] The product of PCR is separated using 1.5% agarose gel, dyed with ethidium bromide (EtBr), and visualized with Gel Doc 2000 UV trans-illuminator (Bio-Rad Laboratories, Hercules, Calif., USA), and the experimental data is analyzed using Quantity One software (Bio-Rad Laboratories).

C3 [4] = experiment: C3 inhibition in HMC-1 cells, ELISA of expressed protein; type: cell-based, human; conditions: PLAG 1, 10 and 100 μg/mL for 2 hours; activated 72 hours with 10% FBS
Description: In a separate experiment, human mast cells (HMC-1, 1×10^5 cells/ml) are treated with PLAG at various concentrations (1, 10 and 100 μg/mL) for 2 hours. The cells are activated for 72 hours with 10% FBS (Fetal bovine serum)-containing IMDM. The decrease of C3 is confirmed by ELISA analysis of the expressed protein.

C3 [5] = experiment: C3 mRNA expression in HepG2 cells by RT-PCR; type: cell-based, human
Description: A liver cell line, HepG2 (American Type Culture Collection, ATCC, Rockville, Md.), is incubated and maintained at 37° C., 5% CO2 humid atmosphere in DMEM medium. When HepG2 cells, which are known to produce complement in culture, are treated with PLAG, the activity of complement is reduced effectively, as confirmed by RT-PCR of mRNA. In the RT-PCR, 5×10^5 HepG2 cells/ml are distributed into 12 well plates and induced C3 for 12 hours with 10% FCS. Then PLAG is added and further cultured for 2 hours. Cells are harvested and mRNA is isolated and RT-PCR is carried out with specific primers for C3; GAPDH is used as an internal control.

C3 [6] = experiment: C3 in culture supernatant of HepG2 cells by ELISA; type: cell-based, human; conditions: PLAG 1 to 100 μg/ml; IL-4 and TNF-α 1 hr, then 18 hr at 37° C.
Description: (§2) The incubated HepG2 cell lines are treated with PLAG (1˜100 μg/ml), followed by IL-4 and TNF-α, reacted for 1 hour, incubated for 18 hours at 37° C. and the supernatant is isolated. Quantitation of the amount of C3 in the cellular culture medium (supernatant) from HepG2 cells is performed by ELISA using a commercially available monoclonal antibody (mAb, R&D Systems) and the manufacture's protocol; the results are presented in FIGS. 3A-3C. C3 is expressed spontaneously under in vitro culture conditions using 10% FCS added to HepG2 cells incubated for 12 hr. The cells are treated with different doses of PLAG from 1 to 100 μg/ml (FIG. 3A, FIG. 3B) or 10 and 100 μg/ml of S6I (FIG. 3C), reacted with IL-4 and TNF-α for 1 hr and then incubated for 18 hr at 37° C. Cellular viability is confirmed using the WST-1 assay (FIG. 3A).

HepG2 cells = experiment: WST-1 cell viability assay in HepG2 cells; type: cell-based; conditions: PLAG 1 to 100 μg/ml
Description: as §2

[7] = Colony forming units (CFUs) in spleen assay in heavily irradiated mice; type: in vivo; conditions: PLAG 50 mg/kg/d i.p. or p.o.
Description: Colony Forming Units (CFUs) in Spleen Assay in Vivo: In order to determine the in vivo effect of PLAG on the recovery of hematopoiesis, a CFUs assay is performed in heavily irradiated mice.

complement 3 = experiment: Complement 3 activation by chemotherapeutic agents in mouse model; type: in vivo; conditions: mice; PLAG 50 mg/kg daily 3 weeks with Gemcitabine, Cyclosphosphamide or Tamoxifen
Description: The effect of PLAG for treatment of chemotherapy-induced thrombocytopenia (CIT) is evaluated in an animal model. Anti-cancer agents (Gemcitabine 50 mg/kg, Cyclosphosphamide 100 mg/kg, or Tamoxifen 50 mg/kg) are dosed daily for 3 weeks; PLAG is also administered at a dose of 50 mg/kg daily for 3 weeks.
It is believed that the neutropenia and thrombocytopenia of these agents and other chemotherapeutic agents may be due at least in part to a specific complement-mediated toxicity. This is seen in FIG. 5.

[8] = system: hematopoietic stem cells and megakaryocytes; conditions: reported in WO 99/26640; cited from earlier work

Structure (SMILES) | IL-4 treatment induced STAT6 phosphorylation (STAT6 [1]) | STAT6 expression (transcriptional activity, luciferase) (STAT6 [2]) | STAT1 expression (transcriptional activity, luciferase) (STAT1) | Expression of C3 in HMC-1 cells (C3 [3]; pre-treated with 0.1 and 1 μg/mL PLAG, then IL-4 (5 ng) and TNF-α (10 ng)) | Decrease of C3 (ELISA) in HMC-1 cells (C3 [4]) | Inhibition of C3 expression (RT-PCR) in HepG2 (C3 [5]; PLAG 1 μg/ml, 2 hours, C3 induced 12 hours with 10% FCS) | Inhibition of C3 expression (RT-PCR) in HepG2 (C3 [5]; PLAG 10 μg/ml, 2 hours, C3 induced 12 hours with 10% FCS) | Expression of C3 (ELISA, HepG2 supernatant) (C3 [6]) | Cellular propagation and death (WST-1 viability) (HepG2 cells) | Number of splenic nodules, primitive progenitor cells and megakaryocytes [7] | Complement 3 activation caused by chemotherapeutic agents (complement 3) | Growth-stimulating activities of hematopoietic stem cells and megakaryocytes [8] | Expression of C3 in HMC-1 cells (C3 [3]; IL-4 and TNF-α followed by S6I) | Inhibition of C3 expression (RT-PCR) in HepG2 (C3 [5]; S6I 10 and 100 μg/ml, compared with PLAG 1 and 10 μg/ml)
CCCCC/C=C\C/C=C\CCCCCCCC(=O)OC(COC(C)=O)COC(=O)CCCCCCCCCCCCCCC (racemic) [PLAG, 1-palmitoyl-2-linoleoyl-3-acetylglycerol] | inhibited with increasing PLAG concentrations | significant, dose-dependent effect | no effect | suppressed by PLAG on a concentration dependent basis | proportional to the concentration of PLAG | somewhat | entirely | decreased dose-dependently | does not affect | marked increase | largely blocked | have growth-stimulating activities | – | –
NC(=O)c1cnc(NCCc2ccc(O)c(Cl)c2)nc1NCc1ccccc1 [S6I, reference compound] | – | – | – | – | – | – | – | – | – | – | – | – | comparable | comparable
